The text below walks through data of ChEMBL document CHEMBL6115010, “Targeting glioma with heteroaromatic alkaloids: A review of potential therapeutics” (Bioorg Med Chem, 2025).

The subject of test [1] is SH-SY5Y. Nature of the test: Cytotoxicity against human SH-SY5Y cells. It counts as functional, cell-based.
In test [2] the test system is CCF-STTG1. Nature of the test: Cytotoxicity against human CCF-STTG1 cells assessed as reduction in cell growth incubated for 24 hrs by MTT assay. Type of test: functional, cell-based. Particulars: CCF-STTG1, 24 h. For orientation: Tetrazolium assays rely on reduction of a dye to a coloured formazan, in cell work by metabolically active cells.
The nature of test [3]: Cytotoxicity against human CHG-5 cells assessed as reduction in cell growth incubated for 24 hrs by MTT assay. Type of test: functional, cell-based. Particulars: CHG-5, 24 h.
Test [4] can be described thus: Cytotoxicity against human SHG-44 cells assessed as reduction in cell growth incubated for 24 hrs by MTT assay. Type of test: functional, cell-based. As to conditions: SHG-44, 24 h.
In test [5] the test system is SF-268. Nature of the test: Cytotoxicity against human SF-268 cells assessed as reduction in cell viability incubated for 72 hrs by SRB assay. Particulars: SF-268, 72 h. Type of test: functional, cell-based.
A further test deals with GAMG. Nature of the test: Antiproliferative activity against human GAMG cells assessed as reduction in cell viability incubated for 48 hrs by MTS reagent based assay. It counts as functional.
A short description of test [6]: Cytotoxicity against rat ASK cells assessed as reduction in cell growth by SRB assay. Type of test: functional. As to conditions: read-out: ED50 (the source's name). (The SRB assay estimates cell density from bound dye.)
Test [7] is described as follows: Cytotoxicity against human CHG-5 cells assessed as reduction in cell viability incubated for 24 hrs by MTT assay. As to conditions: CHG-5, 24 h. It counts as functional, cell-based.
Test [8] is described as follows: Cytotoxicity against human SHG-44 cells assessed as reduction in cell viability incubated for 24 hrs by MTT assay. Type of test: functional, cell-based. Particulars: SHG-44, 24 h.
For test [9], the system named is U-251. Kind of test: Cytotoxicity against human U-251MG cells assessed as reduction in cell viability incubated for 24 hrs by MTT assay. Type of test: functional, cell-based. As to conditions: U-251, 24 h.
Test [10] deals with CCF-STTG1. Kind of test: Cytotoxicity against human CCF-STTG1 cells assessed as reduction in cell viability incubated for 24 hrs by MTT assay. Type of test: functional, cell-based. As to conditions: CCF-STTG1, 24 h.
In another test the test system is H4. Nature of the test: Antiproliferative activity against human H4 cells assessed as reduction in cell viability incubated for 72 hrs by Prestoblue-reagent based assay. Type of test: functional. Particulars: H4, 72 h.
In test [11] the test system is U-87 MG. Kind of test: Antiproliferative activity against human U-87 MG cells assessed as reduction in cell viability at 100 uM incubated for 72 hrs by Prestoblue-reagent based assay relative to control. It counts as functional, U-87MG ATCC.
Test [12] can be described thus: Cytotoxicity against human GSC-3 cells assessed as reduction in cell viability incubated for 72 hrs by MTS assay. It counts as functional, cell-based. As to conditions: GSC-3, 72 h.
Test [13] in a line: Cytotoxicity against human CHG-5 cells assessed as reduction in cell growth incubated for 48 hrs by MTT assay. It counts as functional, cell-based. As to conditions: CHG-5, 48 h.
Test [14] relates to SH-SY5Y. Nature of the test: Cytotoxicity against human SH-SY5Y cells assessed as reduction in cell growth incubated for 48 hrs by MTT assay. Type of test: functional, cell-based.
Test [15] in a line: Cytotoxicity against human SHG-44 cells assessed as reduction in cell growth incubated for 48 hrs by MTT assay. It counts as functional, cell-based. Particulars: SHG-44, 48 h.
Test [16] deals with U-251. Kind of test: Cytotoxicity against human U-251MG cells assessed as reduction in cell growth incubated for 48 hrs by MTT assay. Type of test: functional, cell-based. Particulars: U-251, 48 h.
Test [17] can be described thus: Cytotoxicity against human U-343MG cells assessed as reduction in cell growth incubated for 48 hrs by MTT assay. Type of test: functional, cell-based.
Test [18] is described as follows: Cytotoxicity against human GL15 cells assessed as reduction in cell growth incubated for 48 hrs by MTT assay. Type of test: functional, cell-based. As to conditions: GL15, 48 h.
Test [19] deals with CCF-STTG1. Kind of test: Cytotoxicity against human CCF-STTG1 cells assessed as reduction in cell viability incubated for 48 hrs by MTT assay. Type of test: functional, cell-based. As to conditions: CCF-STTG1, 48 h.
A short description of test [20]: Cytotoxicity against human CHG-5 cells assessed as reduction in cell viability incubated for 48 hrs by MTT assay. It counts as functional, cell-based. As to conditions: CHG-5, 48 h.
Test [21] in a line: Cytotoxicity against human SHG-44 cells assessed as reduction in cell viability incubated for 48 hrs by MTT assay. It counts as functional, cell-based. Particulars: SHG-44, 48 h.
The subject of test [22] is U-251. Kind of test: Cytotoxicity against human U-251MG cells assessed as reduction in cell viability incubated for 48 hrs by MTT assay. Particulars: U-251, 48 h. It counts as functional, cell-based.
Test [23] is described as follows: Growth inhibition of human U373 MG cells measured after 72 hrs by MTT assay. Type of test: functional, U-373MG ATCC.
The test system of the next test is Hs68. Kind of test: Growth inhibition of human Hs68 cells measured after 72 hrs by MTT assay. It counts as functional.
Test [24] has as its system U-87 MG. Kind of test: Growth inhibition of human U-87 MG cells measured after 72 hrs by MTT assay. It counts as functional, U-87MG ATCC.
Test [25] deals with SF-268. Kind of test: Antiproliferative activity against human SF-268 cells. Type of test: functional, cell-based.

Each structure is given as a SMILES string. In brackets after ≈: the same amount, converted by molar mass.

As usually defined, the IC50 is the concentration that gives 50% inhibition. For `Cc1cc2nc3[nH]c(=O)[nH]c(=O)c3nc2cc1C` [LUMICHROME], inhibition with SH-SY5Y [1] was half-maximal at 75.2 µM (IC50).
As for `COc1ccc2c(c1OC)-c1c(OC)c(O)cc3c1[C@H](C2)[N@+](C)([O-])CC3`, the IC50 in the test on CCF-STTG1 [2] is 81.8 µM; in test [3], 83.7 µM; in test [4], 83.7 µM.
`C/C=C(\C)[C@H](O)[C@H](C)/C=C(C)/C=C(\C)C/C(C)=C/Cc1nc(OC)c(OC)c(O)c1C`: the IC50 in the test on SF-268 [5] was found to be 30.2 µM.
`COC(=O)C1=CO[C@@H](C)[C@@H]2CN3CC[C@]4(C(=O)Nc5ccccc54)[C@@H]3C[C@H]12`: the IC50 in the test on GAMG was found to be 20.1 µM.
Regarding `CN1C(=O)C(=O)NC[C@@H]1CNc1ccc(C(=O)O)cc1`, half-maximal inhibition with SH-SY5Y [1] (IC50) was put at 54.3 µM.
Regarding `COc1cc2c(cc1OC)-c1c3c(cc4ccnc(c14)C2=O)OCO3` [DICENTRINONE], the EC50 in [6] is 10.2 µg/mL (≈ 30.4 µM).
As to `CC(=O)O[C@@H]1C2C3C[C@H]4C5=Nc6ccccc6[C@]51C[C@@H]2[N+]4([O-])[C@@H](C)[C@@H]3C(=O)O` (stereo not given in full), the IC50 came out at 12.1 µM in [7], 9.2 µM in test [8], 9.7 µM with U-251 [9] and 11.4 µM in the test with CCF-STTG1 [10].
The inhibition is the drop in the measured response relative to a control, in per cent. For the molecule `CC1=NCCc2c1[nH]c1ccccc21`, in the test on H4, the IC50 turned out to be 33.5 µM. Moreover, in the test with U-87 MG [11], the inhibition at 100 µM turned out to be 30%.
On the same counts, the results for `COc1ccc2c3c([nH]c2c1)C(C)=NCC3` [HARMALINE] are 19.6 µM and 14%.
Regarding `COc1cc2c(c(Oc3ccc(C=O)cc3)c1OC)-c1c(OC)c(OC)c(OC)c3ccnc(c13)C2=O`, in test [12], the IC50 worked out at 16.3 µg/mL (≈ 32.5 µM).
Consider `CO[C@@H]1C=C[C@@]23c4cc5c(cc4CN(CCc4ccc(O)cc4)[C@@H]2CN(C)[C@H]3C1)OCO5`, for which the IC50 in [13] is 41.8 µM; in the test with SH-SY5Y [14] it was 53.7 µM; in test [15] it was 43.7 µM; in the test with U-251 [16], 46.6 µM; in test [17], 43.2 µM; in [18] it was 39.8 µM.
With `CC(=O)O[C@@H]1C2C3C[C@H]4C5=Nc6ccccc6[C@]51C[C@@H]2[N+]4([O-])[C@@H](C)[C@@H]3C=O` (stereo not given in full), the IC50 in [7] was 12.9 µM; in test [8], 11.8 µM; with U-251 [9] it was 12.3 µM; in the test on CCF-STTG1 [10] it was 12.3 µM.
For `CO[C@@H]1C=C[C@@]23c4cc5c(cc4CN(CCc4ccccc4)[C@@H]2CN(C)[C@H]3C1)OCO5`, the IC50 was determined as 17.7 µM in test [13]; 15.8 µM in the test on SH-SY5Y [14]; 15.4 µM in [15]; 18.4 µM in the test with U-251 [16]; 14.6 µM in test [17]; 18.9 µM in [18].
Consider `COc1cc2c(cc1O)[C@H](OC(C)=O)N1C[C@@H](O)[C@]23C=C[C@H](OC)C[C@@H]13`, for which the IC50 in the test on CCF-STTG1 [19] came out at 29.4 µM; in [20] it was 29.4 µM; in test [21], 27.1 µM; in the test on U-251 [22], 17.4 µM.
By GI50 is commonly meant the concentration that inhibits growth by half. A high value points to less potent growth inhibition. As for `CO[C@@H]1C=C[C@@]23c4cc5c(cc4C(C)O[C@H]2CN(C)[C@H]3C1)OCO5` (stereo not given in full), the GI50 in [23] amounted to 1 µM; with Hs68 it was 51 µM; in the test with U-87 MG [24] it was 28 µM.
Regarding `COc1cc(OC)c2c(c1)C(=O)c1nccc3cc4c(c-2c13)OCO4` [OXODISCOGUATTINE], in [6], the EC50 was found to be 2.11 µg/mL (≈ 6.29 µM).
As to `C/C=C(\C)[C@H](O)[C@H](C)/C=C(C)/C=C/C/C(C)=C/Cc1nc(OC)c(OC)c(O)c1C` [PIERICIDIN A], the IC50 in the test on SF-268 [5] is 68.1 µM.
Consider `CC(=O)O[C@H]1c2cc3c(cc2[C@]24C=C[C@H](O)C[C@H]2N1C[C@H]4O)OCO3`, for which the IC50 in the test on CCF-STTG1 [19] is 29.4 µM; in test [20] it was 29.4 µM; in test [21] it was 28.3 µM; in the test on U-251 [22], 15.8 µM.
Molecule `C[C@@H]1CC[C@H]2C(C)(C)[C@H](O)CC[C@]2(C)[C@@]12Cc1c(O)cc3c(c1O2)C(=O)NC3=O` gave an IC50 in the test on SF-268 [25] of 43.3 µM.
`CO[C@H]1C=C[C@]23c4cc5c(cc4[C@H](OC(C)=O)N(C[C@H]2O)[C@@H]3C1)OCO5`: the IC50 with CCF-STTG1 [19] amounted to 27.1 µM; in test [20] it was 30 µM; in [21] it was 28.3 µM; in the test with U-251 [22] it was 15.8 µM.
Consider `CN[C@H]1C[C@H](OC)C=C[C@@]12C(=O)N(CCCC(=O)O)Cc1cc3c(cc12)OCO3`, for which the IC50 came to 12.2 µM in test [13]; 13.7 µM in the test with SH-SY5Y [14]; 10.8 µM in test [15]; 11.3 µM in the test on U-251 [16]; 12.2 µM in test [17]; 11.4 µM in test [18].
With `COc1ccc2c3c([nH]c2c1)[C@@H](C)NCC3`, the inhibition at 100 µM in the test with U-87 MG [11] stood at 38%.
As for `CC1=NCCc2c1[nH]c1cc(O)ccc21` [HARMALOL], the IC50 in the test with H4 came to 23.7 µM. In addition, the inhibition at 100 µM in the test with U-87 MG [11] is 37%.
